The values that follow are results of earlier work, collected in patent US20140271704A1, “METHODS OF PRODUCING NUTRITIONAL SUPPLEMENTS USING MUSHROOMS FROM THE SPECIES Poria cocos OR Flammulina velutipes” (JARROW FORMULAS, INC., priority 2013, published 2014).

The structures appear in SMILES notation.

The subject of series [1] is homocysteine. To be noted: human; compared with racemic mixtures of equal amounts of L- and D-isomer.
For series [2] the following is noted: oral, animal.

For `CN1c2c(nc(N)[nH]c2=O)NCC1CNc1ccc(C(=O)N[C@@H](CCC(=O)O)C(=O)O)cc1` (single isomer, unassigned) [L-isomer of 5-MTHF, 5-methyltetrahydrofolate], the “reduction of homocysteine versus racemic mixture” value in series [1] is “superior to racemic mixtures”. Consider `CN1c2c(nc(N)[nH]c2=O)NCC1CNc1ccc(C(=O)N[C@@H](CCC(=O)O)C(=O)O)cc1` (some centres unmarked) [5-MTHF, 5-methyltetrahydrofolate], for which the “absorption from the intestinal tract” value in series [2] is listed as “readily absorbed from the intestinal tract without degradation”.
